This experiment has as its system CEM cells HIV-1 protection, formazan growth assay. As to the kind of experiment: NCI AIDS Antiviral Assay. The following applies: for IC50: measured here: growth of uninfected CEM cells. As for the experimental part: The ability of compounds to protect human CEM cells from HIV-1 infection is measured as a screen for new compounds capable of inhibiting the HIV virus. Five concentrations of drug were tested on uninfected and infected cells and cell growth was measured using a soluble formazan assay. […] Compounds that provided at least 50% protection were retested. Compounds that provided at least 50% protection on retest were listed as moderately active. Compounds that reproducibly provided 100% protection were listed as confirmed active. […] Note that the inability to provide protection could be due to toxicity.

The structures appear in SMILES notation. Active and inactive are the calls of the source.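 The calls were made as follows: active = compounds giving half or more protection of infected cells from virus-caused growth loss, again on retest; inactive = the rest.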

A word on the EC50: it is the concentration that produces a half-maximal response. The IC50 is the concentration that inhibits the measured activity by half. A low value points to higher potency.

For the compound `O=C1NC(=O)/C(=C\c2cccc(O)c2)N1`, the EC50 was more than 200 µM and the IC50 was more than 200 µM.

Consider `C/C=C/C=Nc1c(C#N)c2n(c1C(=O)Nc1ccccc1)CCC2`, for which the EC50 was more than 100 µM and the half-maximal inhibitory concentration (IC50) was more than 100 µM.

As for `C=C(C)[C@]12CC(C)C34OC(/C=C\C=C\CCCCCCCCC)(O[C@@H]1[C@@H]3[C@@H]1O[C@]1(CO)[C@@H](O)[C@]1(O)C(=O)C(C)=C[C@@H]41)O2` (stereo partly specified), the EC50 was more than 0.2 µM and the half-inhibitory concentration (IC50) worked out at 0.00389 µM.

As to `CC(=O)C(=Cc1cccc(Cl)c1)C(C)=O`, the EC50 was more than 162 µM and the IC50 was found to be 26.3 µM.

For the compound `CC(Cl)CN1c2ccccc2Sc2ccc(Cl)cc21` (stereo unspecified), the EC50 is more than 200 µM and the concentration for half-maximal inhibition (IC50) was found to be 132 µM.

On to `OC1[C@@H]2[C@@H](O)CCCN2C[C@@H](O)[C@H]1O` (stereo partly specified), for which the EC50 is more than 200 µM and the IC50 was more than 200 µM.

On to `Cc1nn(C(=O)c2c(O)cccc2Br)c(C)c1N=Nc1ccccc1`, for which the outcome was inactive.

Take `COC1CCC(OS(C)(=O)=O)C(CO)O1` (stereo unspecified): the outcome was inactive.

In the case of `O=C(COC(=O)c1cccc2c(=O)c3ccccc3[nH]c12)Nc1ccc(Cl)cc1`, the outcome was inactive.

For `Cn1c(N2CCCC2)c(C=O)c(=O)n(C)c1=O`, the outcome was inactive.

Regarding `O=C1OC2C=CCC1C2` (stereo unspecified), the EC50 was more than 200 µM and the IC50 is more than 200 µM.

As for `COc1cccc(C(=O)CC(c2ccccc2)C(C)(C)[N+](=O)[O-])c1` (stereo unspecified), the EC50 is more than 200 µM and the IC50 was 95.5 µM.

In the case of `Cc1ccc(S(=O)(=O)N=C2C=C(C(C)(C)C)C(=O)C(C(C)(C)C)=C2)cc1`, the EC50 was more than 36.3 µM and the IC50 is more than 36.3 µM.

On to `SCCCSCCSCCCSCCS`, for which the EC50 is more than 17.4 µM and the concentration for half-maximal inhibition (IC50) is more than 17.4 µM.

Consider `CC(C)NCC(O)c1cc(OCc2ccccc2)c(OCc2ccccc2)cc1NC(=O)CCC(=O)O` (stereo unspecified), for which the EC50 is more than 200 µM and the IC50 came to 1.58 µM.

With `O=C1OC(/C=C/c2ccccc2)Sc2ccccc21` (stereo unspecified), the result was inactive.

As for `NC(=O)Cc1ncn(-c2ccccc2)n1`, the EC50 is more than 200 µM and the half-inhibitory concentration (IC50) is more than 200 µM.

For the compound `CCOC(=O)CCC(NC(=O)C(N)c1ccc([N+](=O)[O-])cc1)C(=O)NC(CCC(=O)OCC)C(=O)OCC` (stereo unspecified), the EC50 is more than 200 µM and the IC50 is more than 200 µM.

As for `Cc1nc2c(nc1C)C(=O)C(N1CCCCC1)=CC2=O`, the result was inactive.

Regarding `O=C1C[C@@H]([C@H](NC(=O)OCc2ccccc2)C(=O)O)ON1`, the result was inactive.

As for `O=[N+]([O-])CC1CCCCC1O` (stereo unspecified), the EC50 is more than 200 µM and the IC50 came to 115 µM.

In the case of `CC12SC3(C)SC(C)(S1)SC(C)(S2)S3`, the EC50 was more than 44.7 µM and the IC50 amounted to 33.1 µM.

Consider `CCN(CC)CC(C(=O)Nc1c(C)cccc1C)/C(C)=N\NC(=O)C[N+](C)(C)C` (stereo unspecified), for which the EC50 is more than 40.7 µM and the IC50 was more than 40.7 µM.

As for `Nc1nn2c(C(Br)Br)cc(C(Br)Br)nc2c1[N+](=O)[O-]`, the EC50 was more than 200 µM and the IC50 turned out to be 0.525 µM.

Turning to `N#CC1(Cc2ccccc2Cl)c2ccccc2C=CN1C(=O)c1ccccc1` (stereo unspecified), the result was inactive.

For the compound `FC(F)(F)c1nc(-c2ccccc2)oc1Sc1oc(-c2ccccc2)nc1C(F)(F)F`, the result was inactive.

With `CCOC(=O)C(=O)N1C(C)=C(C(=O)OCC)CC(C(=O)OCC)=C1C`, the EC50 was more than 200 µM and the 50% inhibitory concentration (IC50) is more than 200 µM.

Regarding `CC(C)C1(Cl)CCC2C3(C)CCCC(C)(C(=O)O)C3CC(Cl)C2(Cl)C1Cl` (stereo unspecified), the EC50 was more than 200 µM and the concentration for half-maximal inhibition (IC50) was 41.7 µM.

On to `Cc1cc(=O)n(-c2ccccc2)c(=S)n1-c1nc2ccccc2[nH]1`, for which the EC50 is more than 107 µM and the concentration for half-maximal inhibition (IC50) was found to be 63.1 µM.

Regarding `O=C(NCCCNC(=O)c1ccc2cc(O)c(O)cc2c1)c1ccc2cc(O)c(O)cc2c1`, the outcome was inactive.

Consider `COC(=O)c1cc(C)ccc1/C=C1\Cc2cccc(C)c2C1=O`, for which the EC50 was more than 200 µM.

As for `Cn1nc(-c2ccccc2)c(N=[N+]=[N-])cc1=O`, the EC50 is more than 200 µM and the IC50 is more than 200 µM.

`CCOC(CN(C)C(=O)Nc1cccc2ccccc12)OCC`: the EC50 was more than 200 µM and the 50% inhibitory concentration (IC50) was 178 µM.

On to `COc1ccc(NC(=O)/C(Cc2nc3ccccc3[nH]c2=O)=N\O)c(OC)c1`, for which the outcome was inactive.

For the compound `CC(C)(C)[Si](C)(C)OCCCCC1CC2(S(=O)(=O)C3=CC=C=C=C3)ON1CC2S(=O)(=O)c1ccccc1` (stereo unspecified), the EC50 is more than 45.7 µM and the IC50 is more than 45.7 µM.

For the compound `Cc1ccccc1C1=[N+]([O-])c2ccccc2C1=O`, the outcome was inactive.

`CC(CO)CCNc1ncnc2c1ncn2CCC(=O)OC(C)(C)C` (stereo unspecified): the EC50 is more than 200 µM and the concentration for half-maximal inhibition (IC50) is more than 200 µM.

On to `N=c1nnc2ccc(Cl)cc2n1O`, for which the EC50 was more than 200 µM and the IC50 was found to be 33.1 µM.

Consider `Cn1c(=O)c2c3ccccc3n(C)c2n(C)c1=O`, for which the EC50 is more than 200 µM and the IC50 was more than 200 µM.

On to `COc1ccc(CCNC(=S)/N=C/C2=C(O)CC(C)(C)CC2=O)cc1OC`, for which the EC50 is more than 200 µM and the concentration for half-maximal inhibition (IC50) is more than 200 µM.

For `Nc1nncs1`, the EC50 is more than 1780 µM and the IC50 was found to be 871 µM.

As for `CC1(C(=O)Nc2ccc3ccccc3c2)CC2(C)CC(C)(C1)C(O)NC2=O` (stereo unspecified), the outcome was inactive.

`COC(=O)CCC(=O)c1ccc2c(c1)CC1(Cc3ccccc3C1)C2`: the EC50 was more than 200 µM and the half-maximal inhibitory concentration (IC50) turned out to be 46.8 µM.

In the case of `N#C/C(=C/c1cccc2ccccc12)C(=O)c1ccccc1`, the EC50 is more than 13.2 µM and the IC50 was more than 13.2 µM.

For the compound `COc1ccccc1NC(=O)C(=O)Cc1cnc2ccccc2n1`, the EC50 was more than 209 µM and the half-inhibitory concentration (IC50) came to 138 µM.

On to `CCc1cccc(CC)c1Nc1nc(-c2ccccc2-c2ccccc2)cs1`, for which the EC50 is more than 200 µM and the half-inhibitory concentration (IC50) was more than 200 µM.

Regarding `O=C(O)c1ccc(CS(=O)(=O)c2ccc(Cl)cc2)cc1`, the EC50 is more than 794 µM and the IC50 is more than 794 µM.

As to `CCN1CCNc2c3cc(OC)ccc3nc3c([N+](=O)[O-])ccc1c23`, the EC50 is more than 200 µM and the IC50 worked out at 0.11 µM.

Consider `O=C(c1ccc(Cl)cc1)c1c(O)c2ccccc2oc1=O`, for which the EC50 is more than 200 µM and the IC50 is more than 200 µM.

As to `Cc1ccc(C2=Nc3ccccc3SC(c3cccc([N+](=O)[O-])c3)C2)cc1` (stereo unspecified), the EC50 is more than 33.9 µM and the 50% inhibitory concentration (IC50) was found to be 6.17 µM.

As for `COc1ccc2c(ccc3[nH]c4c(C)cnc(NCCCN(C)C)c4c32)c1`, the EC50 was more than 2 µM and the half-maximal inhibitory concentration (IC50) came to 0.132 µM.

With `Cc1coc2c1C1OC(=O)C3(C/C=C\C(C)C2)OC13` (stereo unspecified), the EC50 was more than 72.4 µM and the 50% inhibitory concentration (IC50) is more than 72.4 µM.

For the compound `CSC1SCC2C(=O)N(C)C3(CC3C)C(=O)OCC(NC(=O)c3nc4ccccc4cc3O)C(=O)NC(C)C(=O)N(C)C1C(=O)N(C)C1(CC1C)C(=O)OCC(NC(=O)c1nc3ccccc3cc1O)C(=O)NC(C)C(=O)N2C` (stereo unspecified), the EC50 was more than 8.32 µM and the half-inhibitory concentration (IC50) is 0.00263 µM.

On to `CC(C)(C)[Si](C)(C)OCC1OC(n2ccc(=O)[nH]c2=O)CC1(O)C/C=N/O` (stereo unspecified), for which the EC50 is more than 200 µM and the IC50 was found to be 12.6 µM.

Consider `CC(C)N(CC(OC(=O)OC(C)(C)C)c1cc(OCc2ccccc2)c(OCc2ccccc2)cc1[N+](=O)[O-])C(=O)OC(C)(C)C` (stereo unspecified), for which the EC50 was more than 100 µM and the IC50 was 30.2 µM.

Regarding `COc1ccc(C2SC(N)=Nc3c2c(C)nn3C(=O)Cc2ccccc2)cc1` (stereo unspecified), the 50% effective concentration (EC50) was 91.2 µM and the IC50 came out at 355 µM.

Turning to `COC(=O)c1ccccc1/C=C1\Cc2ccc3ccccc3c2C1C` (stereo unspecified), the EC50 was more than 200 µM and the IC50 was more than 200 µM.

On to `S=C1Cc2c([nH]c3ccccc23)-c2ccccc2N1`, for which the EC50 is more than 200 µM and the IC50 came to 129 µM.

As for `Nc1nc(=Nc2ccccc2)ss1`, the result was inactive.

Take `COC(=O)/C(C#N)=C1\NC(=O)c2ccccc21`: the EC50 is more than 83.2 µM and the IC50 was more than 83.2 µM.

For the compound `COC(=O)CSSCc1ccc([N+](=O)[O-])cc1`, the EC50 was more than 200 µM and the IC50 turned out to be 3.47 µM.

Consider `O=c1cnc2c(ccc3ccccc32)[nH]1`, for which the EC50 was more than 182 µM and the IC50 was more than 182 µM.

For `COC(=O)C1(C(=O)OC)C2(CCCC2)C1(C(=O)OC)C(=O)OC`, the EC50 is more than 200 µM and the IC50 was more than 200 µM.

Take `Cc1cc(=O)[nH]c(Sc2ccc([N+](=O)[O-])cc2[N+](=O)[O-])n1`: the EC50 is more than 200 µM and the IC50 amounted to 6.31 µM.

On to `C[C@@H](c1ccccc1)n1c(N)c(C#N)c2ccc([N+](=O)[O-])cc2c1=O`, for which the EC50 is more than 200 µM and the IC50 worked out at 12.3 µM.

As to `O=C(CCc1n[nH]c(=S)o1)Nc1ccccc1C(F)(F)F`, the EC50 is more than 295 µM and the IC50 was determined as 229 µM.

Regarding `CCCCOP(=O)(/C=C/c1ccc([N+](=O)[O-])cc1)OCCCC`, the EC50 is more than 20.9 µM and the IC50 is more than 20.9 µM.

As for `COc1ccc(NC(=O)/C(=C\N2C(=O)CC(=O)NC2=S)C(C)=O)cc1`, the EC50 is more than 200 µM and the IC50 came to 25.7 µM.

Regarding `CC1CC(C)CC(C)C(O)/C(C#N)=C/C=C/CC(C2CCCC2C(=O)O)OC(=O)CC(O)C(C)C1` (stereo unspecified), the EC50 was more than 2.57 µM and the 50% inhibitory concentration (IC50) is 0.00575 µM.

As to `CCOP(=O)(OCC)OC1CC(n2cnc3c(N(CC)CC)ncnc32)OC1CO[Si](C)(C)C(C)(C)C` (stereo unspecified), the EC50 is more than 200 µM and the half-maximal inhibitory concentration (IC50) came to 31.6 µM.

Regarding `COc1cc2oc(=O)cc(C)c2cc1O`, the EC50 is more than 871 µM and the half-inhibitory concentration (IC50) was found to be 138 µM.

Regarding `CC(=O)Oc1cc(-c2oc3cc(OC(C)=O)c(C4OC(CO)C(O)C(O)C4O)c(OC(C)=O)c3c(=O)c2O)c(OC(C)=O)cc1O` (stereo unspecified), the EC50 is more than 200 µM and the IC50 was more than 200 µM.

Consider `NC(N)=NS(=O)(=O)c1ccc(NNc2c3ccccc3nc3ccccc23)cc1`, for which the EC50 is more than 200 µM and the IC50 was 1.07 µM.

(Values after PubChem BioAssay AID179 (DTP/NCI, 2004).)
